Consider 22 compounds from ChEMBL document CHEMBL1155004, “Antiprion activity of functionalized 9-aminoacridines related to quinacrine” (Bioorg Med Chem, 2008).

A value given as a limit tells only on which side of the number the result lay.

The nature of data set [1]: Antiprion activity against scrapie prion protein RML infected mouse ScN2a cells assessed as reduction of scrapie prion protein accumulation by immunoblot analysis. In kind it is cell-based.
The nature of data set [2]: Cytotoxicity against mouse ScN2a cells assessed as maximal tolerant concentration. The following applies: read-out: Activity. It is filed as cell-based.
Another data set deals with ScN2a. Put plainly: Antiprion activity against scrapie prion protein RML infected mouse ScN2a cells assessed as drug level required for more than 99 percent reduction of scrapie prion protein by immunoblot analysis. It is filed as cell-based.
Data set [3] can be described thus: Selectivity index, ratio of maximal tolerant concentration for mouse ScN2a cells to EC50 for scrapie prion protein RML infected mouse ScN2a cells.
Data set [4] in a line: Antiprion activity against human prion Fukuoka-1 infected mouse F3 cells assessed as reduction of scrapie prion protein accumulation. It is filed as cell-based. The following applies: N2a #58 F3.
The next data set concerns Ch2. Put plainly: Antiprion activity against scrapie prion protein RML infected mouse Ch2 cells assessed as drug level required for more than 99 percent reduction of scrapie prion protein. It is filed as cell-based.
The test system of a further data set is N2a #58 F3. Put plainly: Antiprion activity against human prion Fukuoka-1 infected mouse F3 cells assessed as drug level required for more than 99 percent reduction of scrapie prion protein. In kind it is cell-based.
The nature of data set [5]: Antiprion activity against scrapie prion protein 22L infected mouse N167 cells assessed as reduction of scrapie prion protein accumulation. In kind it is cell-based.
The subject of another data set is N167. Put plainly: Antiprion activity against scrapie prion protein 22L infected mouse N167 cells assessed as drug level required for more than 99 percent reduction of scrapie prion protein. In kind it is cell-based.
Data set [6] is described as follows: Antiprion activity against scrapie prion protein RML infected mouse Ch2 cells assessed as reduction of scrapie prion protein accumulation. It is filed as cell-based.

For the compound `COc1ccc2nc3cc(Cl)ccc3c(N)c2c1`, the half-maximal effective concentration (EC50) in data set [1] was determined as 130 nM. The MNTC in data set [2] stood at 4000 nM. Further, the Activity in the data set with ScN2a was found to be 0.4 µM. The “Selectivity Index” value in data set [3] is listed as 30.

With `COc1ccc2nc3cc(Cl)ccc3c(Nc3cccc(N4CCN(C)CC4)c3)c2c1`, the EC50 in [4] was 1490 nM; in data set [1], 290 nM; in data set [5], 1190 nM; in [6], 380 nM. Besides, the Activity with Ch2 stood at 1.5 µM; in the data set on N2a #58 F3, 3.5 µM; with ScN2a, 1 µM; in the data set on N167, 3 µM. Besides, the MNTC in data set [2] was determined as 4000 nM. For the same compound, the “Selectivity Index” value in data set [3] was determined as 14.

`COc1ccc2nc3cc(Cl)ccc3c(N3CCN(C)CC3)c2c1`: the concentration for a half-maximal effect (EC50) in [1] is 360 nM; in data set [6], greater than 2000 nM. Further, in data set [2], the MNTC amounted to 4000 nM. For the same compound, the Activity in the data set with ScN2a stood at 1.8 µM. Moreover, the “Selectivity Index” value in data set [3] worked out at 11.

For the compound `COc1ccc2nc3cc(Cl)ccc3c(Nc3cccc(N4CCCC4)c3)c2c1`, the half-maximal effective concentration (EC50) in data set [1] stood at 1060 nM. Moreover, the MNTC in data set [2] stood at 2000 nM. For the same compound, the “Selectivity Index” value in data set [3] amounted to 2.

For `COc1ccc2nc3cc(Cl)ccc3c(Nc3ccc(N4CCCCC4)cc3)c2c1`, the EC50 in data set [1] amounted to 4240 nM; in [5], 4290 nM. For the same compound, the MNTC in data set [2] was determined as 9000 nM. Also, in the data set on ScN2a, the Activity was found to be 7 µM. Moreover, in data set [3], the “Selectivity Index” value worked out at 2.

With `CCN(CC)CCCCNc1c2ccc(Cl)cc2nc2ccc(OC)cc12`, the 50% effective concentration (EC50) in data set [1] worked out at 150 nM. Further, the MNTC in [2] was found to be 1000 nM. In addition, in the data set on ScN2a, the Activity was 0.4 µM. Further, the “Selectivity Index” value in data set [3] is given as 7.

In the case of `CCN(CC)CCNc1c2ccc(Cl)cc2nc2ccc(OC)cc12`, the Activity with Ch2 was determined as 3 µM; with ScN2a, 0.1 µM. The EC50 in data set [1] was determined as 21 nM; in data set [6], 700 nM. The MNTC in data set [2] was found to be 4000 nM. Moreover, in [3], the “Selectivity Index” value worked out at 190.

Regarding `CCN(CC)CCCC(C)Nc1c2ccc(Cl)cc2nc2ccc(OC)cc12` (stereo not given) [QUINACRINE], the EC50 in data set [4] is 1880 nM; in [1], 230 nM; in [5], 590 nM; in data set [6], 460 nM. For the same compound, the Activity in the data set with Ch2 stood at 2 µM; in the data set on ScN2a, 0.8 µM. Further, the MNTC in data set [2] was 2500 nM. Moreover, the “Selectivity Index” value in [3] is on record as 11.

On to `COc1ccc2nc3cc(Cl)ccc3c(Nc3ccc(N4CCOCC4)cc3)c2c1`, for which the concentration for a half-maximal effect (EC50) in data set [1] turned out to be 1280 nM. Moreover, the MNTC in [2] was found to be 4000 nM. The Activity in the data set on ScN2a amounted to 3 µM. Besides, the “Selectivity Index” value in data set [3] was 3.

Turning to `COc1ccc2nc3cc(Cl)ccc3c(Nc3cccc(N4CCCCC4)c3)c2c1`, the 50% effective concentration (EC50) in data set [1] turned out to be 180 nM. Further, the MNTC in [2] was 4000 nM. In addition, in the data set on ScN2a, the Activity stood at 0.5 µM. The “Selectivity Index” value in data set [3] was found to be 22.

Turning to `CCN(CC)c1cccc(Nc2c3ccc(Cl)cc3nc3ccc(OC)cc23)c1`, the concentration giving a half-maximal response (EC50) in [1] was determined as 1010 nM. For the same compound, in [2], the MNTC was 3000 nM. In addition, the Activity in the data set with ScN2a turned out to be 2.5 µM. In addition, in [3], the “Selectivity Index” value was found to be 3.

With `COc1ccc2nc3cc(Cl)ccc3c(Nc3cccc(N(C)C)c3)c2c1`, the EC50 in data set [1] came out at 320 nM. Further, in data set [2], the MNTC is 2000 nM. In data set [3], the “Selectivity Index” value stood at 6.

With `COc1ccc2nc3cc(Cl)ccc3c(Nc3cccc(N4CCOCC4)c3)c2c1`, in data set [1], the EC50 is 900 nM. Further, the MNTC in data set [2] came to 3000 nM. Besides, the “Selectivity Index” value in data set [3] was determined as 3.

As to `COc1ccc2nc3cc(Cl)ccc3c(Nc3ccc(N(C)C)cc3)c2c1`, in [1], the concentration for a half-maximal effect (EC50) came to 510 nM. Besides, the MNTC in data set [2] came out at 2000 nM. Moreover, the “Selectivity Index” value in data set [3] worked out at 4.

On to `COc1ccc2nc3cc(Cl)ccc3c(Nc3ccc(N4CCN(C)CC4)cc3)c2c1`, for which the EC50 in data set [4] worked out at 680 nM; in [1], 100 nM; in [5], 420 nM; in [6], 220 nM. Moreover, the Activity in the data set on Ch2 was found to be 1.2 µM; in the data set with N2a #58 F3 it was 1.5 µM; in the data set with ScN2a, 0.4 µM; in the data set with N167 it was 1.5 µM. In data set [2], the MNTC came out at 2500 nM. For the same compound, in data set [3], the “Selectivity Index” value is reported as 25.

With `CCN(CC)c1ccc(Nc2c3ccccc3nc3ccccc23)cc1`, in [1], the 50% effective concentration (EC50) is 240 nM. In addition, the MNTC in [2] is 400 nM. In data set [3], the “Selectivity Index” value is given as 2.

As for `COc1ccc2nc3cc(Cl)ccc3c(NCCCN(C)C)c2c1`, in [1], the 50% effective concentration (EC50) came to 110 nM. Besides, the MNTC in data set [2] worked out at 1000 nM. For the same compound, in the data set with ScN2a, the Activity was determined as 0.3 µM. In addition, the “Selectivity Index” value in data set [3] is reported as 9.

On to `Nc1c2ccccc2nc2ccccc12` [AMINACRINE], for which, in data set [2], the MNTC was determined as 2500 nM.

Turning to `CCN(CC)CCCNc1c2ccc(Cl)cc2nc2ccc(OC)cc12`, the 50% effective concentration (EC50) in data set [1] was determined as 140 nM. In data set [2], the MNTC was found to be 1000 nM. In addition, in the data set with ScN2a, the Activity is 0.3 µM. Also, the “Selectivity Index” value in [3] was determined as 7.

With `COc1ccc2nc3cc(Cl)ccc3c(Nc3ccccc3N(C)C)c2c1`, the EC50 in data set [1] was 250 nM. For the same compound, the MNTC in [2] worked out at 5000 nM. Further, the Activity with ScN2a was 0.8 µM. For the same compound, the “Selectivity Index” value in data set [3] came to 20.

Regarding `COc1ccc2nc3cc(Cl)ccc3c(NC3CCN(Cc4ccccc4)CC3)c2c1`, the EC50 in data set [4] came out at 800 nM; in data set [1], 420 nM; in data set [5], 490 nM; in [6], 410 nM. In addition, the Activity in the data set with Ch2 is 1 µM; in the data set with ScN2a, 1 µM; in the data set with N167 it was 1.5 µM. Moreover, in data set [2], the MNTC was found to be 2000 nM. In addition, the “Selectivity Index” value in data set [3] stood at 5.

`CCN(CC)c1ccc(Nc2c3ccc(Cl)cc3nc3ccc(OC)cc23)cc1`: in data set [1], the half-maximal effective concentration (EC50) worked out at 480 nM. Moreover, the MNTC in [2] was 2000 nM. Besides, the Activity in the data set on ScN2a was 1.5 µM. Moreover, the “Selectivity Index” value in data set [3] stood at 4.
